Read-outs that look alike come from different tables or passages of the source. Where no end group is shown, it is not given here.
Legend:
[1] = target: T1, mouse B2 bradykinin receptor (Mus musculus, UniProt P32299); experiment: Effect of guanine nucleotides on binding of BK to membranes (mouse B2 receptor, COS-7); conditions: increasing concentrations of guanine nucleotide
T1 construct: The PCR product begins 99 bp upstream of the initiator methionine codon and ends 49 bp downstream of the stop codon; expressed in transfected cells; host or cells: COS-7 (transient), pcDNAI-Neo
T1 sequence (P32299 1-366 isoform P32299-2): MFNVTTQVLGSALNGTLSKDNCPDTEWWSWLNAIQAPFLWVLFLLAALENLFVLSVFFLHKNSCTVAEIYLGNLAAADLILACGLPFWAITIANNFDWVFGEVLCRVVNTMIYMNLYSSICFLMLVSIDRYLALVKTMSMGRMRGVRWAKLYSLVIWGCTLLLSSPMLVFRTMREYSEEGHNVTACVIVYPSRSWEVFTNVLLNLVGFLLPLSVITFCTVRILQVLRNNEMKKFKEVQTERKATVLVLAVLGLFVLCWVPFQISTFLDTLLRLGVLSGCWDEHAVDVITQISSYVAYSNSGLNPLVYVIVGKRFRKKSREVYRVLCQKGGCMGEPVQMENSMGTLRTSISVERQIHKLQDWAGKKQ
Excerpt: The binding of BK to membranes was reduced by increasing concentrations of GTP, guanosine 5'-O-(3-thiotriphosphate) or 5'guanylylimidodiphosphate.

[2] = target: T2, human B2 bradykinin receptor (Homo sapiens, UniProt P30411); experiment: Competition binding against 100 pM [3H]BK at the cloned human B2 receptor (COS-7); conditions: for specificity of binding (rank order): COS-7 expressed human B2 receptor; for competition for BK binding: COS-7; for IC50: [3H]BK binding to human B2 receptor
T2 construct: placing the entire B2 clone under the control of the CMV promoter; expressed in transfected cells
T2 sequence (P30411 1-364 isoform P30411-2): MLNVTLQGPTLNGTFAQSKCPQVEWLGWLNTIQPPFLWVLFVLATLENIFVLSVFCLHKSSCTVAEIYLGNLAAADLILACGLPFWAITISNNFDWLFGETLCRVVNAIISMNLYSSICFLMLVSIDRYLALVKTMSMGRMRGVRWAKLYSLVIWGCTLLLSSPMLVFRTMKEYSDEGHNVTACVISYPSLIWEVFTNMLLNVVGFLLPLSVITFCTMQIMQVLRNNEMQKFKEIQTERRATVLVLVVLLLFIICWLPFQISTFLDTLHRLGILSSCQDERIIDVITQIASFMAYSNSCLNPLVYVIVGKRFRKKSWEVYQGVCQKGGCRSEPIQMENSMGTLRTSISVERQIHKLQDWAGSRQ
Experimental: In order to enable expression of the cDNA that encodes for the B2 bradykinin receptor, COS-7 cells were transfected using LIPOFECTIN (BRL, Gaithersburg, Md.) with 50ug/10^7 cells of the B2 receptor cDNA subcloned into the eukaryotic expression vector pcDNA I-Neo (Invitrogen). Cells were then harvested after 72 hours and the membranes containing the expressed receptor protein were prepared by scraping the cells in phosphate buffered saline solution and centrifuging for ten minutes at 500× g. The cell pellet was then resuspended and homogenized with a Polytron in 20 mM N-tris(hydroxymethyl)methyl-2-aminoethane sulfonic acid (TES,pH 6.8 at room temperature) buffer containing 1 mM 1, 10 phenanthroline. The homogenate was then centrifuged for ten minutes at 500 × g. The final membrane pellet was resuspended in assay buffer (TES plus 0.1% protease free bovine serum albumin, 5 uM MK-422 (enalaprilat; Gross et al., 1981) and 140 ug/ml bacitracin using a motor-driven teflon-glass tissue homogenizer. Protein determination was performed by the method of Bradford using bovine IgG as the standard. See Bradford, M.A. Anal. Biochem. 72, 248-254 (1976).
Binding assays were then performed to determine receptor antagonist or agonist interaction. The assays utilized in the instant invention follow the method of Manning et al., J. Pharmacol. Exp. Ther., 237, 504-512 (1986). […] (BRANDEL, Gaithersburg, Md.). The tubes were rinsed two times with 4 ml ice-cold […] and the filter bound radioactivity was quantitated by liquid scintillation counting. […] The competition and saturation experiments were analyzed using the EBDA program of McPherson. See McPherson, G.A. J Pharmacol. Methods 14, 213-218 (1985).

[3] = target: T1, mouse B2 bradykinin receptor; experiment: Competition binding using 100 pM [3H]BK at the expressed mouse B2 bradykinin receptor
Experimental: (§1) Binding assays were then performed to determine receptor antagonist or agonist interaction. The assays utilized in the instant invention follow the method of Manning et al., J. Pharmacol. Exp. Ther., 237, 504-512 (1986). [^3 H]BK at various concentrations was incubated for 60 minutes at 25° C. with approximately 50ug membrane protein from COS-7 cells in a volume of 1 ml. The assay was terminated by filtration over Whatman GF/B filters presoaked for 3 hours in 0.1 % polyethyleneimine using a BRANDEL M-24 CELL […] (BRANDEL, Gaithersburg, Md.). The tubes were rinsed two times with 4 ml ice-cold […] and the filter bound radioactivity was quantitated by liquid scintillation counting. Nonspecific binding was determined by performing incubation in the presence of 1 uM BK and generally represents less than 5% of the total binding at 100pM ^3 H]BK. Competition binding experiments, in the presence of 100pM[^3 H]BK, were performed with varying concentrations of the test compound(s). The competition and saturation experiments were analyzed using the EBDA program of McPherson. See McPherson, G.A. J Pharmacol. Methods 14, 213-218 (1985).
To verify the pharmacological properties of the mouse bradykinin B2 receptor the coding sequence of the mouse B2 bradykinin receptor was isolated by PCR (Perkin Elmer/Cetus) using a Techne thermocycler with the template being the EcoR I by Hind III genomic fragment in pSP72 and the 5' primer 5'-[…]-3' (SEQ.ID.NO.:8) and the 3' primer 5'- […]-3' (SEQ.ID.NO.:9). The PCR product was subcloned into the Hind III and Xba I sites of the eukaryotic expression vector pcDNAI-Neo (Invitrogen). The PCR product begins 99 bp upstream of the initiator methionine codon and ends 49 bp downstream of the stop codon. The DNA sequence analysis using Sequenase (US Biochemical) of the subcloned PCR product confirmed that the sequence was identical to that in the original genomic fragment.

[4] = tested on: rat vas deferens; conditions: cited from earlier work; for pre- or postsynaptic BK like responses: rat vas deferens
[5] = tested on: B1 receptor; conditions: cited from earlier work
[6] = tested on: B2 receptor; conditions: cited from earlier work
[7] = tested on: murine AB2.1 ES cells, pBS-KO-1 transformants; experiment: FIAU counter-selection of pBS-KO-1 ES cell transformants; type: cell-based, mouse; conditions: FIAU 0.2 μM
Experimental: Targeted alteration of the bradykinin B2 gene in murine ES cells The gene replacement vector used in the B2 gene disruption experiments was the pBS-KO-1 vector. When this vector recombined with the wild-type B2 allele to generate the B2 knock-out (B2 KO), the entire coding sequence for the B2 receptor was deleted (FIG. 2). The mouse embryonic stem cell line AB2.1 was electroporated with Not I -linearized pBS-KO-1 in multiple experiments. All AB2.1 ES cells were cultured on SNL feeder cells as described (Robertson, in Teratocarcinomas and embryonic stem cells, IRL Press, pp. 71-112 (1987)). Electroporations were performed with 4×10^6 ES cells and 25 μg linearized pBS-KO-l in 0.8 ml electroporation buffer (Specialty Media, Inc.) at 300v, 250 μF using a Bio-Rad Gene Pulser. ES cell transformants were selected with the antibiotic geneticin (Gibco G418: 200 μg/ml active G418), and some transformants were counter-selected with FIAU (Bristol Myers Squibb; 0.2 μM) for enhancement of homologous recombinants. Murine leukemia inhibitory factor (LIF; ESGRO, Gibco BRL, Inc.) was used at 1000 U/ml. […] G418-and FIAU-resistant ES clones were isolated by picking and growing individual colonies, and their genomic DNAs were prepared from AB2.1 5 KO-I-transformants as described (Laird et al., Nucleic Acids Res. 19:4293 (1991).

[8] = target: T1, mouse B2 bradykinin receptor; experiment: Saturation binding to whole COS cells transiently expressing the mouse B2 receptor; conditions: single high affinity site, read-out: KD for [3H]BK
Experimental: as §1, with “[^3 H]BK at various concentrations was incubated for 60 minutes at 25° C. with approximately 50ug membrane protein from COS-7 cells in a volume of 1 ml.” left out
To verify the pharmacological properties of the mouse bradykinin B2 receptor the coding sequence of the mouse B2 bradykinin receptor was isolated by PCR (Perkin Elmer/Cetus) using a Techne thermocycler with the template being the EcoR I by Hind III genomic fragment in pSP72 and the 5' primer 5'-[…]-3' (SEQ.ID.NO.:8) and the 3' primer 5'- […]-3' (SEQ.ID.NO.:9). […]

[9] = expressed mouse B2 receptor, 100 pM [3H]BK

Q: For `Nc1nc2c(ncn2[C@@H]2O[C@H](COP(=O)(O)OP(=O)(O)NP(=O)(O)O)[C@@H](O)[C@H]2O)c(=O)[nH]1` [5'guanylylimidodiphosphate], which “binding of BK to membranes” value [1] is on record?
A: Its value is “reduced”.

Q: With `N=C(N)NCCC[C@H](N)C(=O)N1CCC[C@H]1C(=O)N1CCC[C@H]1C(=O)NCC(=O)N[C@@H](Cc1ccccc1)C(=O)N[C@@H](CO)C(=O)N1CCC[C@H]1C(=O)N[C@@H](Cc1ccccc1)C(=O)O` [Des-Arg^9 BK] as the compound, how does the inhibition at 10 µM ([2]; 10 uM, human B2 receptor) read?
A: Its inhibition at 10 µM is 18%.

Q: What about the affinity [3, 9] of the same compound?
A: The affinity was “very low affinity”.

Q: What about the IC50 ([3]; expressed mouse B2 receptor, 100 pM [3H]BK, read-out: IC50) of the same compound?
A: Its IC50 is 6 µM.

Q: And the “pre- or postsynaptic BK like responses” value [4]?
A: The value was “inactive”.

Q: What about the “potency as B1 receptor agonist relative to BK” value [5] of the same compound?
A: Its value is “higher potency than BK”.

Q: What about the “activity at B2 receptors” value [6] of the same compound?
A: Its value is “inactive at B2 receptors”.

Q: For `O=c1[nH]c(=O)n([C@@H]2O[C@H](CO)[C@@H](O)[C@@H]2F)cc1I` [FIAU, 1-(2-deoxy 2-fluoro-B-D-arabinofluranosyl)-5-iodouracil], which “fewer background pBS-KO-1 transformants” value [7] is on record?
A: Its value is “about eleven”.

Q: Which “binding of BK to membranes” value [1] does the source give for `Nc1nc2c(ncn2[C@@H]2O[C@H](COP(=O)(O)OP(=O)(O)OP(=O)(O)O)[C@@H](O)[C@H]2O)c(=O)[nH]1` [GTP, guanosine triphosphate] here?
A: The value was “reduced”.

Q: With `N=C(N)NCCC[C@H](NC(=O)[C@@H](N)CCCCN)C(=O)N1CCC[C@H]1C(=O)N1CCC[C@H]1C(=O)NCC(=O)N[C@@H](Cc1ccccc1)C(=O)N[C@@H](CO)C(=O)N1CCC[C@H]1C(=O)N[C@@H](Cc1ccccc1)C(=O)O` [[des-Arg^10]-kallidin] as the compound, how does the IC50 [3] read?
A: Its IC50 is 25 µM.

Q: And the affinity [3, 9]?
A: The affinity was “very low affinity”.

Q: With `Nc1nc2c(ncn2[C@@H]2O[C@H](COP(=O)(O)OP(=O)(O)OP(O)(O)=S)[C@@H](O)[C@H]2O)c(=O)[nH]1` [guanosine 5'-O-(3-thiotriphosphate)] as the compound, how does the “binding of BK to membranes” value [1] read?
A: The value was “reduced”.

Q: With `N=C(N)NCCC[C@H](NC(=O)[C@H](Cc1ccccc1)NC(=O)[C@@H]1CCCN1C(=O)[C@H](CO)NC(=O)[C@H](Cc1ccccc1)NC(=O)CNC(=O)[C@@H]1CCCN1C(=O)[C@@H]1CCCN1C(=O)[C@H](CCCNC(=N)N)NC(=O)[C@@H](N)CCCCN)C(=O)O` [kallidin] as the compound, how does the “specificity of binding (rank order)” value [2] read?
A: Its value is “BK>lys-BK>met-lys-BK”.

Q: What about the affinity [3, 9] of the same compound?
A: The affinity was “high (subnanomolar) affinity”.

Q: With `CSCC[C@H](N)C(=O)N[C@@H](CCCCN)C(=O)N[C@@H](CCCNC(=N)N)C(=O)N1CCC[C@H]1C(=O)N1CCC[C@H]1C(=O)NCC(=O)N[C@@H](Cc1ccccc1)C(=O)N[C@@H](CO)C(=O)N1CCC[C@H]1C(=O)N[C@@H](Cc1ccccc1)C(=O)N[C@@H](CCCNC(=N)N)C(=O)O` [met-lys-BK] as the compound, how does the “specificity of binding (rank order)” value [2] read?
A: The value was “BK>lys-BK>met-lys-BK”.

Q: Which “competition for BK binding” value ([2]; human B2 receptor) does the source give for `CC[C@H](C)[C@@H]1NC(=O)[C@H](Cc2ccc(O)cc2)NC(=O)[C@@H](N)CSSC[C@@H](C(=O)N2CCC[C@H]2C(=O)N[C@@H](CC(C)C)C(=O)NCC(N)=O)NC(=O)[C@H](CC(N)=O)NC(=O)[C@H](CCC(N)=O)NC1=O` [oxytocin] here?
A: Its value is “No competition for BK binding”.

Q: For D-Arg^0-[Hyp^2,3, Thi^5,8 D-Phe^7 ]BK, which IC50 [2] is on record?
A: The IC50 was 27 nM.

Q: With Des-Arg^9,LeuBK: B1 antagonist as the compound, how does the “inhibition of BK binding” value ([2]; 10 uM, human B2 receptor) read?
A: Its value is 11%.

Q: What about the “antagonism of BK responses” value ([4]; high concentrations, vas deferens) of the same compound?
A: The value was “failed to antagonize BK responses”.

Q: And the “pre- or postsynaptic BK like responses” value [4]?
A: Its value is “inactive”.

Q: Which IC50 [2] does the source give for [Thi^5,8,D-Phe^7 ]BK here?
A: The IC50 was 180 nM.

Q: Which Kd [8] does the source give for “[^3 H]BK: radioligand [3H]BK used in binding assays (RPPGFSPFR; also: tritium label; UniProt P01042 381-389, looked up)” here?
A: The Kd was 0.2 ± 0.03 nM.

Q: With “angiotensin I: peptide (DRVYIHPFHL; Angiotensin-1; UniProt P01019 25-34, looked up)” as the compound, how does the “competition for BK binding” value ([2]; human B2 receptor) read?
A: The value was “No competition for BK binding”.

Q: For “angiotensin II: peptide (DRVYIHPF; Angiotensin-2; UniProt P01019 25-32, looked up)”, which “competition for BK binding” value ([2]; human B2 receptor) is on record?
A: The value was “No competition for BK binding”.

Q: With endothelin: peptide as the compound, how does the “competition for BK binding” value ([2]; human B2 receptor) read?
A: Its value is “No competition for BK binding”.

Q: With neurotensin as the compound, how does the “competition for BK binding” value ([2]; human B2 receptor) read?
A: The value was “No competition for BK binding”.

Reference: patent publication US5750826A, “Bradykinin B2 receptor modified transgenic non-human animals” (Merck & Co., Inc., priority 1996, dated 1998)
